We go through one compound from PMC9204300, “Investigating the Mechanism of Inhibition of Cyclin-Dependent Kinase 6 Inhibitory Potential by Selonsertib: Newer Insights Into Drug Repurposing” (Frontiers in Oncology, 2022).

For orientation: Kd means the free concentration of one partner at which half of the binding sites on the other are occupied at equilibrium, for simple one-to-one binding. A lower Kd goes with tighter binding.

The target in this assay is Cyclin-dependent kinase 6 (CDK6) (Homo sapiens, UniProt Q00534). The experiment in a line: biochemical.
Cyclin-dependent kinase 6 (CDK6), sequence (Q00534 whole entry): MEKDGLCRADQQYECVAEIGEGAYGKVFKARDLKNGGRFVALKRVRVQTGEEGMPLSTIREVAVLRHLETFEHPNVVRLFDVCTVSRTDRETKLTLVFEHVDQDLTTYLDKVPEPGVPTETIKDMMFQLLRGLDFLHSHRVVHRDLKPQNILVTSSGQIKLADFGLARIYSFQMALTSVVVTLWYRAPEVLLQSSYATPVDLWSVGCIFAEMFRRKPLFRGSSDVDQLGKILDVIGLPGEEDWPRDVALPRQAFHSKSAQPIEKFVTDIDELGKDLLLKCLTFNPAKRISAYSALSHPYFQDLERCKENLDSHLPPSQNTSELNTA

Compound `Cc1cc(F)c(C(=O)Nc2cccc(-c3nncn3C(C)C)n2)cc1-n1cnc(C2CC2)c1` [selonsertib] gave a Kd of 5.56 µM.
